pIC50: −log10 of the molar value. Where two headings read alike, the source gives them in different places.

Results on 25 compounds are retold here after patent US9296698B2, “Amino heteroaryl compounds as beta-secretase modulators and methods of use” (Amgen Inc., priority 2009, dated 2016).

The target in assay [1] is BACE 1 (Beta Secretase enzyme) (Homo sapiens, UniProt P56817). The assay can be described thus: In vitro enzymatic BACE FRET assay. The assay is classed as biochemical. The method, then: In Vitro Enzymatic BACE FRET (Fluorescence Resonance Energy Transfer) Assay (Enzyme Assay Data in Table 1)
The assay buffer used in this screen is 0.05 M acetate, pH 4.2, 10% DMSO final, 100 uM genapol (which is a nonionic detergent, below its Critical Micelle Concentration). […] The assay is effectively started by the addition of FRET substrate (50 nM) and the combination is incubated for one hour. The FRET assay is terminated with by addition of Tris buffer, which raises the pH to neutrality, and the fluorescence is determined. The FRET substrate is a peptide with commercially available fluorophore and quencher, on opposite sides of the BACE cleavage site.

In assay [2] the test system is Aβ40 in conditioned medium of cells stably expressing Amyloid Precursor Protein (APP). Put plainly: In vitro BACE cell-based assay (HEK cell assay), Aβ40 sandwich ELISA. As for the experimental part:
In Vitro BACE Cell-Based Assay:
The cell-based assay measures inhibition or reduction of Aβ40 in conditioned medium of test compound treated cells expressing amyloid precursor protein.
Cells stably expressing Amyloid Precursor Protein (APP) were plated at a density of 40K cells/well in 96 well plates (Costar). The cells were cultivated for 24 hours at 37° C. and 5% CO2 in DMEM supplemented with 10% FBS. The test compounds were then added to cells in 10-point dose response concentrations with the starting concentration being either 100 μM or 10 μM. The compounds were diluted from stock solutions in DMSO and the final DMSO concentration of the test compounds on cells was 0.1%. After 24 h of incubation with the test compounds the supernatant conditioned media was collected and the Aβ 40 levels were determined using a sandwich ELISA. The IC50 of the compound was calculated from the percent of control or percent inhibition of Aβ 40 as a function of the concentration of the test compound.
The sandwich ELISA to detect Aβ 40 was performed in 96 well microtiter plates, which were pre-treated with goat anti-rabbit IgG (Pierce). The capture and detecting antibody pair that were used to detect Aβ 40 from cell supernatants were affinity purified pAb40 (Biosource) and biotinylated 6E10 (Signet Labs Inc.), respectively. The optimal concentration for the pAb40 antibody was 3 μg/ml in Superblock/TBS (Pierce) that was supplemented with 0.05% Tween 20 (Sigma).
Cellular supernatants were incubated with the capture antibody for 3 h at 4° C., followed by 3 wash steps in TBS-tween (0.05%). The detecting antibody incubation was for 2 h at 4° C., again followed by the wash steps as described previously. The final readout of the ELISA is Time-Resolved Fluorescence (counts per minute) using Delfia reagents Streptavidin-Europium and Enhancement solutions (Perkin Elmer) and the Victor 2 multilabel counter (Perkin Elmer).

The mark [3] stands for this setting: IC50 range symbols, Table 1, read-out: BACE 1 FRET assay.
The mark [4] stands for this setting: Homo sapiens, HEK293, 24 h, IC50 range symbols, Table 1, Aβ40, 24 h incubation, read-out: HEK cell assay.
[5] abbreviates: Homo sapiens, HEK293, bound stated in text, read-out: IC50 value in the BACE cell-based in-vitro assay.
The mark [6] stands for this setting: bound stated, read-out: IC50 value in the FRET BACE enzyme assay.

Sequence of BACE 1 (Beta Secretase enzyme) (P56817 46-501, species assumed): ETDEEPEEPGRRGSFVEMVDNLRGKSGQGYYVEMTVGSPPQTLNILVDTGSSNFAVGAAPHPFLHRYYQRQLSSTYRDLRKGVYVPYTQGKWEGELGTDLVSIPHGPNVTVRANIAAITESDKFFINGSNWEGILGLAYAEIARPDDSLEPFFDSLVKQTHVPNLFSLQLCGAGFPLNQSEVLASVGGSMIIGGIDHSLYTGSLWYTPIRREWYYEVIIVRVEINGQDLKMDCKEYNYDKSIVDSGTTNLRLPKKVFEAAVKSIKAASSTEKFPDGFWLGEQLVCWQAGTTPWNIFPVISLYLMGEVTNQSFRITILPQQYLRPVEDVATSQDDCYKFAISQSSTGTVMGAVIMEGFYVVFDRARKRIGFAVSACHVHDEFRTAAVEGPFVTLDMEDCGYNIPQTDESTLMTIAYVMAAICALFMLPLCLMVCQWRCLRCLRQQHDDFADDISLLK

Consider `COc1ccccc1[C@@H](C)NC(=O)[C@@H](C)Cc1cc2cc(-c3ccccc3C)ccc2nc1N` [Example 75, (S)-3-(2-amino-6-o-tolylquinolin-3-yl)-N-((R)-1-(2-methoxyphenyl)ethyl)-2-methylpropanamide], for which the pIC50 in assay [1] (setting [3]) is over 6.30; in assay [2] (setting [4]), 5.30 to 6.00.
For the compound `Cc1ccccc1-c1ccc2nc(N)c(CCC(=O)NC3CCOC(C)(C)C3)cc2c1` (stereo not shown) [Example 163, 3-(2-amino-6-(2-methylphenyl)-3-quinolinyl)-N-(-2,2-dimethyltetrahydro-2H-pyran-4-yl)propanamide], the pIC50 in assay [1] (setting [3]) was over 6.30; in assay [2] (setting [4]), over 6.30; in assay [2] (setting [5]), over 7.00.
In the case of `Cc1ccccc1-c1ccc2nc(N)c(C[C@@H](C)C(=O)NCc3cccnn3)cc2c1` [Example 81, (R)-3-(2-amino-6-o-tolylquinolin-3-yl)-2-methyl-N-(pyridazin-3-ylmethyl)propanamide], the pIC50 in assay [1] (setting [3]) is over 6.30; in assay [1] (setting [6]), over 7.30; in assay [2] (setting [4]) it was 6.00 to 6.30.
For the compound `CC(Cc1cc2cc(-c3ncccc3CCN3CCN(C)CC3)ccc2nc1N)C(=O)NCCC(C)(C)C` (stereo not shown) [Example 124, 3-(2-amino-6-(3-(2-(4-methylpiperazin-1-yl)ethyl)pyridin-2-yl)quinolin-3-yl)-N-(3,3-dimethylbutyl)-2-methylpropanamide], the pIC50 in assay [1] (setting [3]) was 6.00 to 6.30; in assay [2] (setting [4]) it was over 6.30.
Taken in the same sequence, the figures for `Cc1ccccc1-c1ccc2nc(N)c(CCC(=O)NC3CCOCC3)cc2c1` [Example 15, 3-(2-amino-6-o-tolylquinolin-3-yl)-N-(tetrahydro-2H-pyran-4-yl)propanamide] were over 6.30 and under 5.30.
`CC(=O)c1ccccc1-c1ccc2nc(N)c(CC(C)C(=O)NC3CCOC(C)(C)C3)cc2c1` (stereo not shown) [Example 143, 3-(6-(2-acetylphenyl)-2-amino-3-quinolinyl)-N-(2,2-dimethyltetrahydro-2H-pyran-4-yl)-2-methylpropanamide]: the pIC50 in assay [1] (setting [3]) and in assay [2] (setting [4]) was over 6.30 throughout.
Consider `Nc1nc2ccc(-c3ccc(F)cc3)cc2cc1CCC(=O)NCC1CCCCC1` [Example 65, 3-(2-amino-6-(4-fluorophenyl)quinolin-3-yl)-N-(cyclohexylmethyl)propanamide], for which the pIC50 in assay [1] (setting [3]) was over 6.30; in assay [2] (setting [4]), under 5.30.
Taken in the same sequence, the figures for `Cc1ccccc1-c1ccc2nc(N)c(C[C@@H](C)C(=O)NC3CCOC(C)C3)cc2c1` (stereo partly drawn) [Example 158, (2R)-3-(2-amino-6-o-tolylquinolin-3-yl)-2-methyl-N-(2-methyltetrahydro-2H-pyran-4-yl)propanamide] were over 6.30 and over 6.30.
Taken in the same sequence, the figures for `Cc1cccnc1-c1ccc2nc(N)c(CC(C)C(=O)NCCC3CCCO3)cc2c1` (stereo not shown) [Example 113, 3-(2-amino-6-(3-methylpyridin-2-yl)quinolin-3-yl)-2-methyl-N-(2-(tetrahydrofuran-2-yl)ethyl)propanamide] were 6.00 to 6.30 and 5.30 to 6.00.
Taken in the same sequence, the figures for `CC(C)(C)CCNC(=O)CCc1cc2cc(-c3ccccc3C(=O)N3CCCC3)ccc2nc1N` [Example 165, 3-(2-amino-6-(2-(1-pyrrolidinylcarbonyl)phenyl)-3-quinolinyl)-N-(3,3-dimethylbutyl)propanamide] were over 6.30 and 5.30 to 6.00.
In the case of `CC(Cc1cc2cc(-c3ccc(F)cc3)ccc2nc1N)C(=O)NC1CCOC(C)(C)C1` (stereo not shown) [Example 167, 3-(2-amino-6-(4-fluorophenyl)-3-quinolinyl)-N-(2,2-dimethyltetrahydro-2H-pyran-4-yl)-2-methylpropanamide], the results for the pIC50 in assay [1] (setting [3]) and in assay [2] (setting [4]) were 5.30 to 6.00 and under 5.30, respectively.
On to `Cc1ccccc1-c1ccc2nc(N)c(CCC(=O)NCC(C)(C)C)cc2c1` [Example 21, 3-(2-amino-6-o-tolylquinolin-3-yl)-N-neopentylpropanamide], for which the pIC50 in assay [1] (setting [3]) was over 6.30; in assay [2] (setting [4]) it was under 5.30.
Taken in the same sequence, the figures for `Cc1ccccc1-c1ccc2nc(N)c(CCC(=O)NCc3ccccc3)cc2c1` [Example 23, 3-(2-amino-6-o-tolylquinolin-3-yl)-N-benzylpropanamide] were over 6.30 and over 6.30.
In the case of `Cc1cccc(C(=O)N2CCCC2)c1-c1ccc2nc(N)c(CC(C)C(=O)NCc3ccccn3)cc2c1` (stereo not shown) [Example 149, 3-(2-amino-6-(2-methyl-6-(pyrrolidine-1-carbonyl)phenyl)quinolin-3-yl)-2-methyl-N-(pyridin-2-ylmethyl)propanamide], the pIC50 in assay [1] (setting [3]) and in assay [2] (setting [4]) was over 6.30 each time.
For the compound `CCn1ccc(CNC(=O)CCc2cc3cc(-c4ccccc4C)ccc3nc2N)n1` [Example 59, 3-(2-amino-6-o-tolylquinolin-3-yl)-N-((1-ethyl-1H-pyrazol-3-yl)methyl)propanamide], the pIC50 in assay [1] (setting [3]) is over 6.30; in assay [2] (setting [4]), 5.30 to 6.00.
Taken in the same sequence, the figures for `COc1ccccc1[C@@H](C)NC(=O)C(C)Cc1cc2cc(-c3ccccc3C)ccc2nc1N` (stereo partly drawn) [Example 76, 3-(2-amino-6-o-tolylquinolin-3-yl)-N-((R)-1-(2-methoxyphenyl)ethyl)-2-methylpropanamide] were over 6.30 and 5.30 to 6.00.
As for `Cc1cccnc1-c1cc2cc(CC(C)C(=O)NCC3CCOCC3)c(N)nc2cc1F` (stereo not shown) [Example 97, 3-(2-amino-7-fluoro-6-(3-methyl-2-pyridinyl)-3-quinolinyl)-2-methyl-N-(tetrahydro-2H-pyran-4-ylmethyl)propanamide], the pIC50 in assay [1] (setting [3]) was over 6.30; in assay [2] (setting [4]), 5.30 to 6.00.
The matching figures for `COC(Cc1cc2cc(-c3ccccc3C)ccc2nc1N)C(=O)NCC1CCCCC1` (stereo not shown) [Example 71, 3-(2-amino-6-o-tolylquinolin-3-yl)-N-(cyclohexylmethyl)-2-methoxypropanamide]: over 6.30 and 5.30 to 6.00.
For the compound `Cc1ccccc1-c1ccc2nc(N)c(C[C@@H](C)C(=O)NC3C[C@@H](C)O[C@@H](C)C3)cc2c1` (stereo partly drawn) [Example 12, (2R)-3-(2-amino-6-o-tolylquinolin-3-yl)-N-(cis-2,6-dimethyltetrahydro-2H-pyran-4-yl)-2-methylpropanamide], the pIC50 in assay [1] (setting [3]) is over 6.30; in assay [1] (setting [6]), over 7.30; in assay [2] (setting [4]), over 6.30; in assay [2] (setting [5]), over 7.00.
For “3-(3-amino-7-o-tolylnaphthalen-2-yl)-N-((R)-1-cyclohexylethyl)propanamide [Example 31]”, the pIC50 in assay [1] (setting [3]) was over 6.30; in assay [2] (IC50 range symbols, Table 1, Aβ40, 24 h incubation, read-out: HEK cell assay), under 5.30.
`Cc1ccccc1-c1ccc2nc(N)c(CCC(=O)N3CCC(F)(F)C3)cc2c1` [Example 134, 3-(2-amino-6-o-tolylquinolin-3-yl)-1-(3,3-difluoropyrrolidin-1-yl)propan-1-one]: the results for the pIC50 in assay [1] (setting [3]) and in assay [2] (setting [4]) were 5.30 to 6.00 and under 5.30, respectively.
With `Cc1ccccc1-c1cc2cc(CC(C)C(=O)NCCC(C)(C)C)c(N)nc2cn1` (stereo not shown) [Example 138, 3-(2-amino-6-o-tolyl-1,7-naphthyridin-3-yl)-N-(3,3-dimethylbutyl)-2-methylpropanamide], the pIC50 was over 6.30 in assay [1] (setting [3]), over 7.30 in assay [1] (setting [6]) and over 6.30 in assay [2] (setting [4]).
Regarding `Cc1ccccc1-c1ccc2nc(N)c(C[C@@H](C)C(=O)NCc3ncccn3)cc2c1` [Example 85, (R)-3-(2-amino-6-o-tolylquinolin-3-yl)-2-methyl-N-(pyrimidin-2-ylmethyl)propanamide], the pIC50 in assay [1] (setting [3]) and in assay [2] (setting [4]) was over 6.30 throughout.
With `CCC1CC1c1ccc2nc(N)c(CC(C)C(=O)NCCC(C)(C)C)cc2c1` (stereo not shown) [Example 120, 3-(2-amino-6-(2-ethylcyclopropyl)quinolin-3-yl)-N-(3,3-dimethylbutyl)-2-methylpropanamide], the figures for the pIC50 in assay [1] (setting [3]) and in assay [2] (setting [4]) were 6.00 to 6.30 and under 5.30, respectively.
Taken in the same sequence, the figures for `C#CC1CC(NC(=O)[C@H](C)Cc2cc3cc(-c4ccccc4C)ccc3nc2N)CCO1` (stereo partly drawn) [Example 160, (R)-3-(2-amino-6-o-tolylquinolin-3-yl)-N-(cis-2-ethynyltetrahydro-2H-pyran-4-yl)-2-methylpropanamide] were over 6.30 and over 6.30.
